For one test, the target named is SARS-CoV-1 RBD (Severe acute respiratory syndrome coronavirus, UniProt P59594). As to the kind of experiment: biochemical. It counts as binding.
For a further test, the target named is SARS-CoV-2 Alpha RBD (Severe acute respiratory syndrome coronavirus 2, UniProt P0DTC2). As to the kind of experiment: biochemical. It counts as binding.
Test [1] has as its target SARS-CoV-1 spike RBD RBD (Severe acute respiratory syndrome coronavirus), P59594. As to the kind of experiment: SPR. The following applies: modification not given.

Broadly, the Kd is the constant that tells how readily two partners part at equilibrium. A higher Kd goes with lower affinity.

Where “and” joins values, the source holds several entries; their conditions need not be identical. Equal entries are not always repeated. Non-standard residues stand in square brackets, D forms with d. Residues, ends and D or L forms follow the SMILES beside them. Pra = C#CC[C@H](N)C(=O)O

With `C#CC[C@H](NC(=O)[C@H](CC(C)C)NC(=O)[C@H](CCCCN)NC(=O)[C@@H](NC(=O)[C@@H](NC(=O)[C@H](CC(C)C)NC(=O)[C@H](CC(N)=O)NC(=O)[C@H](Cc1ccc(O)cc1)NC(=O)[C@@H](NC(=O)[C@H](CCC(=O)O)NC(=O)[C@H](Cc1ccc(O)cc1)NC(=O)[C@H](CC(C)C)NC(=O)[C@@H]1CCCN1C(=O)[C@H](Cc1ccc(O)cc1)NC(=O)[C@H](CCSC)NC(=O)[C@H](CCC(N)=O)NC(=O)[C@H](C)NC(=O)[C@H](CC(C)C)NC(=O)[C@@H](NC(=O)[C@H](CO)NC(=O)[C@@H](N)CCC(N)=O)[C@@H](C)O)[C@@H](C)CC)[C@@H](C)O)C(C)C)C(N)=O` [a2] (H-QSTLAQMYPLYEIYNLTVKL[Pra]-NH2), the Kd stood at 21 ± 5 nM at SARS-CoV-1 RBD and 89 ± 5 nM at SARS-CoV-2 Alpha RBD. The kon on SARS-CoV-1 RBD (read-out: ka) was 85900 M⁻¹ s⁻¹; at SARS-CoV-2 Alpha RBD (read-out: ka) it was 59300 M⁻¹ s⁻¹. Also, the ka at SARS-CoV-2 Alpha RBD (spr) is 5,66e4 M-1s-1 and 6,08e4 M-1s-1.
The molecule QSTLAQMYPLYEIYNLTVKL [ACE2 epitope a2] showed a Kd in test [1] of 21 nM.

The values above are taken from article PMC12457685 (Scientific Reports, 2025).
